Measurements reported in patent US9708336B2, “Metallo-beta-lactamase inhibitors” (priority 2014, dated 2017).
Read-outs that look alike come from different tables or passages of the source.

Columns and labels:
[1] = biological target: NDM-1 (Klebsiella pneumoniae, UniProt C7C422); assay: biochemical; format: biochemical; conditions: NDM-1 enzyme, CCF2-FA fluorescence assay; read-out: NDM-1 IC50
[2] = biological target: IMP-1 (Serratia marcescens, UniProt P52699); assay: biochemical; format: biochemical; conditions: IMP-1 enzyme, CCF2-FA fluorescence assay; read-out: IMP-1 IC50
Sequence of IMP-1 (P52699 whole entry, looked up): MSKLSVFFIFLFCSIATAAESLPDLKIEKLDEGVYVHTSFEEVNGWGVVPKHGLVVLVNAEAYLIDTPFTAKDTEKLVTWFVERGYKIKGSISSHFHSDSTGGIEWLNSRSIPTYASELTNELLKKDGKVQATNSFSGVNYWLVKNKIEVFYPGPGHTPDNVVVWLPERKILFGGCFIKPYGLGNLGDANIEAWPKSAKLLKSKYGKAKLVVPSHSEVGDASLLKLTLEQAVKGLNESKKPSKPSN

[3] = biological target: VIM-1 (Pseudomonas aeruginosa (strain ATCC 15692 / DSM 22644 / CIP 104116 / JCM 14847 / LMG 12228 / 1C / PRS 101 / PAO1), UniProt A0A0F7KYQ8); assay: Enzyme activity: determination of IC50, fluorescence assay with CCF2-FA substrate (VIM-1); format: biochemical; conditions: CCF2-FA fluorescence assay
[4] = system: Escherichia coli expressing NDM-1 (CLB30016); assay: Antibiotic potentiation activity: synergistic concentration (MITC95) with imipenem, OD600 growth; format: cell-based; conditions: Escherichia coli expressing NDM-1 (CLB30016), 95% growth inhibition
In short: (§1)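 Inoculum: saline suspension of overnight colonies, 1:100 into 1.1× CAMHB. Imipenem 4 μg/ml final (alt. 1 μg/ml) + compound; 35 °C, 22–24 h; absorbance read-out.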

[5] = system: Klebsiella pneumoniae expressing VIM-1 (IHMA599644); assay: as above; format: cell-based; conditions: Klebsiella pneumoniae expressing VIM-1 (IHMA599644), 95% growth inhibition
In short: as §1

[6] = system: Serratia marcescens expressing IMP-1 (CL5741); assay: as above; format: cell-based; conditions: Serratia marcescens expressing IMP-1 (CL5741), 95% growth inhibition
In short: as §1

[7] = VIM-1 enzyme, read-out: VIM-1 IC50

Sequence of NDM-1 (C7C422 whole entry, looked up, species assumed): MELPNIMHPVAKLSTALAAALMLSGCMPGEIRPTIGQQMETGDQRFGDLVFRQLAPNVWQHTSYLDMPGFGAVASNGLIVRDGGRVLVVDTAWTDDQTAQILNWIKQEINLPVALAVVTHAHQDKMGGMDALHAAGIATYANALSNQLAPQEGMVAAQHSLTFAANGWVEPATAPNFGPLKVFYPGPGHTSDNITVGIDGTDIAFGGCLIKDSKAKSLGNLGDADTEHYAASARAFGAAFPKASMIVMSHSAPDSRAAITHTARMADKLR

Structure (SMILES)	IC50 [1]	IC50 [2]	IC50 [3, 7]	Escherichia coli MITC95 [4]	Klebsiella pneumoniae MITC95 [5]	Serratia marcescens MITC95 [6]	IC50 ([3]; VIM-1 IC50, VIM-1 enzyme)
CN(C)C1CCC(NCc2ccc(-c3cccc(S(N)(=O)=O)c3-c3nnn[nH]3)cc2)CC1 (stereo not drawn) [Example 355, 4′-({[4-(dimethylamino)cyclohexyl]amino}methyl)-2-(1H-tetrazol-5-yl)biphenyl-3-sulfonamide]	0.014 µM	0.467 µM	0.869 µM	1.563 µM	150 µM	4.688 µM	
CN(C)CCCCNCc1ccc(-c2cccc(S(N)(=O)=O)c2-c2nnn[nH]2)cc1 [Example 356, 4′-({[4-(dimethylamino)butyl]amino}methyl)-2-(1H-tetrazol-5-yl)biphenyl-3-sulfonamide]	0.0241 µM	1.54 µM	0.646 µM	1.563 µM	75 µM	12.5 µM	
C[C@@H](O)[C@H](NCc1ccc(-c2cccc(S(N)(=O)=O)c2-c2nnn[nH]2)cc1)C(=O)O [Example 357, N-{[3′-sulfamoyl-2′-(1H-tetrazol-5-yl)biphenyl-4-yl]methyl}-L-threonine]	0.0125 µM	0.182 µM	0.287 µM	3.125 µM	25 µM	4.688 µM	
CC(NCc1ccc(-c2cccc(S(N)(=O)=O)c2-c2nnn[nH]2)cc1)C(=O)O (stereo not drawn) [Example 358, N-{[3′-sulfamoyl-2′-(1H-tetrazol-5-yl)biphenyl-4-yl]methyl}alanine]	0.0328 µM	0.288 µM		3.125 µM	75 µM	4.688 µM	0.387 µM
CNCC(C)NCc1ccc(-c2cccc(S(N)(=O)=O)c2-c2nn[nH]n2)cc1 (stereo not drawn) [Example 359, 4′-({[1-methyl-2-(methylamino)ethyl]amino}methyl)-2-(2H-tetrazol-5-yl)biphenyl-3-sulfonamide]	0.013 µM	0.104 µM	1.87 µM	4.688 µM	>200 µM	3.125 µM	
Cc1nc(CNCc2ccc(-c3cccc(S(N)(=O)=O)c3-c3nnn[nH]3)cc2)no1 [Example 360, 4′-({[(5-methyl-1,2,4-oxadiazol-3-yl)methyl]amino}methyl)-2-(1H-tetrazol-5-yl)biphenyl-3-sulfonamide]	0.00152 µM	0.0376 µM	0.232 µM	2.344 µM	>200 µM	2.344 µM	
CN(CCC(=O)O)Cc1ccc(-c2cccc(S(N)(=O)=O)c2-c2nnn[nH]2)cc1 [Example 361, N-methyl-N-{[3′-sulfamoyl-2′-(1H-tetrazol-5-yl)biphenyl-4-yl]methyl}-beta-alanine]	0.0129 µM	0.139 µM	0.271 µM	2.344 µM	25 µM	3.125 µM	
NC(=O)C1CN(Cc2ccc(-c3cccc(S(N)(=O)=O)c3-c3nnn[nH]3)cc2)C1 [Example 362, 1-{[3′-sulfamoyl-2′-(1H-tetrazol-5-yl)biphenyl-4-yl]methyl}azetidine-3-carboxamide]	0.0113 µM	0.116 µM		0.7813 µM	75 µM	3.125 µM	0.494 µM
Cn1cncc1C[C@@H](NCc1ccc(-c2cccc(S(N)(=O)=O)c2-c2nnn[nH]2)cc1)C(=O)O [Example 363, 3-methyl-N-{[3′-sulfamoyl-2′-(1H-tetrazol-5-yl)biphenyl-4-yl]methyl}-D-histidine]	0.0215 µM	0.233 µM	0.495 µM	3.125 µM	100 µM	6.25 µM	
CN(CC(=O)O)Cc1ccc(-c2cccc(S(N)(=O)=O)c2-c2nnn[nH]2)cc1 [Example 364, N-methyl-N-{[3′-sulfamoyl-2′-(1H-tetrazol-5-yl)biphenyl-4-yl]methyl}glycine]	0.00917 µM	0.1 µM	0.212 µM	1.563 µM	25 µM	3.125 µM	
NS(=O)(=O)c1cccc(-c2ccc(CN[C@H]3COC[C@@H]3O)cc2)c1-c1nnn[nH]1 [Example 365, 4′-({[(3S,4R)-4-hydroxytetrahydrofuran-3-yl]amino}methyl)-2-(1H-tetrazol-5-yl)biphenyl-3-sulfonamide]	0.00537 µM	0.0521 µM	0.39 µM	1.563 µM	75 µM	2.344 µM	
CN(C)CCCN(C)Cc1ccc(-c2cccc(S(N)(=O)=O)c2-c2nnn[nH]2)cc1 [Example 368, 4′-({[3-(dimethylamino)propyl](methyl)amino}methyl)-2-(1H-tetrazol-5-yl)biphenyl-3-sulfonamide]	0.0234 µM	0.417 µM	1.68 µM	1.563 µM	>200 µM	9.375 µM	
NS(=O)(=O)c1cccc(-c2ccc(CN[C@@H]3CC[C@H](O)C3)cc2)c1-c1nnn[nH]1 [Example 369, 4′-({[(1R,3S)-3-hydroxycyclopentyl]amino}methyl)-2-(1H-tetrazol-5-yl)biphenyl-3-sulfonamide]	0.0252 µM	0.728 µM	0.667 µM	3.125 µM	200 µM	12.5 µM	
CNC(=O)CNCc1ccc(-c2cccc(S(N)(=O)=O)c2-c2nnn[nH]2)cc1 [Example 371, N-methyl-N~2~-{[3′-sulfamoyl-2′-(1H-tetrazol-5-yl)biphenyl-4-yl]methyl}glycinamide]	0.0085 µM	0.0783 µM	0.37 µM	0.7813 µM	100 µM	2.344 µM	
NS(=O)(=O)c1cccc(-c2ccc(CN3CC(F)(F)C3)cc2)c1-c1nnn[nH]1 [Example 372, 4′-[(3,3-difluoroazetidin-1-yl)methyl]-2-(1H-tetrazol-5-yl)biphenyl-3-sulfonamide]	0.00491 µM	0.0157 µM	0.47 µM	7.813 µM	>200 µM	1.563 µM	
NS(=O)(=O)c1cccc(-c2ccc(CNC[C@@]3(O)CCOC3)cc2)c1-c1nnn[nH]1 [Example 373, 4′-[({[(3S)-3-hydroxytetrahydrofuran-3-yl]methyl}amino)methyl]-2-(1H-tetrazol-5-yl)biphenyl-3-sulfonamide]	0.0113 µM	0.247 µM	0.241 µM	1.563 µM	50 µM	3.125 µM	
NS(=O)(=O)c1cccc(-c2ccc(CNC(CO)CO)cc2)c1-c1nnn[nH]1 [Example 374, 4′-({[2-hydroxy-1-(hydroxymethyl)ethyl]amino}methyl)-2-(1H-tetrazol-5-yl)biphenyl-3-sulfonamide]	0.016 µM	0.264 µM	0.277 µM	0.7813 µM	37.5 µM	3.125 µM	
NS(=O)(=O)c1cccc(-c2ccc(CNC3CCC(=O)NC3)cc2)c1-c1nnn[nH]1 (stereo not drawn) [Example 375, 4′-{[(6-oxopiperidin-3-yl)amino]methyl}-2-(1H-tetrazol-5-yl)biphenyl-3-sulfonamide]	0.00613 µM	0.0976 µM	0.533 µM	1.563 µM	>200 µM	3.125 µM	
NS(=O)(=O)c1cccc(-c2ccc(CNCC3(O)CCC3)cc2)c1-c1nnn[nH]1 [Example 376, 4′-({[(1-hydroxycyclobutyl)methyl]amino}methyl)-2-(1H-tetrazol-5-yl)biphenyl-3-sulfonamide]	0.0144 µM	0.0966 µM		2.344 µM	15.63 µM	4.688 µM	0.0504 µM
NS(=O)(=O)c1cccc(-c2ccc(CNCc3ccncn3)cc2)c1-c1nnn[nH]1 [Example 377, 4′-{[(pyrimidin-4-ylmethyl)amino]methyl}-2-(1H-tetrazol-5-yl)biphenyl-3-sulfonamide]	0.00527 µM	0.0737 µM		1.563 µM	200 µM	3.125 µM	0.256 µM
NS(=O)(=O)c1cccc(-c2ccc(CN3CCC3C(=O)O)cc2)c1-c1nnn[nH]1 (stereo not drawn) [Example 378, 1-{[3′-sulfamoyl-2′-(1H-tetrazol-5-yl)biphenyl-4-yl]methyl}azetidine-2-carboxylic acid]	0.0246 µM	0.262 µM	0.407 µM	3.125 µM	50 µM	6.25 µM	
